According to PubChem BioAssay (NCI):
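Growth conditions: 96-well plates. Treatment: test compound, 48 hours, 5 concentrations. Analysis: linear interpolation between bracketing concentrations; unreached endpoints set to highest concentration. Definition used: TGI = concentration required for complete inhibition of growth.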

Assays:
Assay in all cases: NCI-60 cell line screen, 48 h
SNB-19 CNS = system: SNB-19 CNS
OVCAR-5 ovarian = system: OVCAR-5 ovarian
SW-620 colon = system: SW-620 colon
786-0 renal = system: 786-0 renal
CAKI-1 renal = system: CAKI-1 renal
SNB-75 CNS = system: SNB-75 CNS
M14 melanoma = system: M14 melanoma
HS 578T breast = system: HS 578T breast
TK-10 renal = system: TK-10 renal
RXF 393 renal = system: RXF 393 renal
HCT-15 colon = system: HCT-15 colon
A549 NSCLC = system: A549 NSCLC
HCC-2998 colon = system: HCC-2998 colon
LOX IMVI melanoma = system: LOX IMVI melanoma
UACC-257 melanoma = system: UACC-257 melanoma
HOP-92 NSCLC = system: HOP-92 NSCLC
HL-60(TB) leukemia = system: HL-60(TB) leukemia
OVCAR-3 ovarian = system: OVCAR-3 ovarian
MALME-3M melanoma = system: MALME-3M melanoma
NCI-H226 lung = system: NCI-H226 lung
SK-OV-3 ovarian = system: SK-OV-3 ovarian
K-562 leukemia = system: K-562 leukemia
SK-MEL-2 melanoma = system: SK-MEL-2 melanoma
A498 renal = system: A498 renal
SF-539 CNS = system: SF-539 CNS
NCI-H23 lung = system: NCI-H23 lung
NCI-H460 lung = system: NCI-H460 lung
NCI/ADR-RES ovarian = system: NCI/ADR-RES ovarian
UO-31 renal = system: UO-31 renal
HT29 colon = system: HT29 colon
ACHN renal = system: ACHN renal
SR leukemia = system: SR leukemia
MDA-MB-231 breast = system: MDA-MB-231 breast
SF-268 CNS = system: SF-268 CNS
BT-549 breast = system: BT-549 breast
OVCAR-4 ovarian = system: OVCAR-4 ovarian
MDA-N = system: MDA-N
MCF7 breast = system: MCF7 breast
SN12C renal = system: SN12C renal
SK-MEL-5 melanoma = system: SK-MEL-5 melanoma
PC-3 prostate = system: PC-3 prostate
SK-MEL-28 melanoma = system: SK-MEL-28 melanoma
KM12 colon = system: KM12 colon
NCI-H522 lung = system: NCI-H522 lung
DU-145 prostate = system: DU-145 prostate
HOP-62 NSCLC = system: HOP-62 NSCLC
COLO 205 colon = system: COLO 205 colon
HCT-116 colon = system: HCT-116 colon
EKVX NSCLC = system: EKVX NSCLC
U251 CNS = system: U251 CNS
UACC-62 melanoma = system: UACC-62 melanoma
MOLT-4 leukemia = system: MOLT-4 leukemia
MDA-MB-435 = system: MDA-MB-435
CCRF-CEM leukemia = system: CCRF-CEM leukemia
RPMI-8226 leukemia = system: RPMI-8226 leukemia
SF-295 CNS = system: SF-295 CNS
T-47D breast = system: T-47D breast
IGROV1 ovarian = system: IGROV1 ovarian
OVCAR-8 ovarian = system: OVCAR-8 ovarian
SNB-78 CNS = system: SNB-78 CNS
LXFL 529 NSCLC = system: LXFL 529 NSCLC
HOP-18 NSCLC = system: HOP-18 NSCLC
DMS 273 small cell lung = system: DMS 273 small cell lung
DMS 114 small cell lung = system: DMS 114 small cell lung
M19-MEL melanoma = system: M19-MEL melanoma
KM20L2 colon = system: KM20L2 colon
DLD-1 colon = system: DLD-1 colon

COc1ccc(C(=O)Cn2c(C(C)=O)nc3ccccc32)cc1
TGI (SNB-19 CNS): > 100 µM | TGI (OVCAR-5 ovarian): > 100 µM | TGI (SW-620 colon): > 100 µM | TGI (786-0 renal): 33.7 µM | TGI (CAKI-1 renal): > 100 µM | TGI (SNB-75 CNS): > 100 µM | TGI (M14 melanoma): > 100 µM | TGI (HS 578T breast): > 100 µM | TGI (TK-10 renal): > 100 µM | TGI (RXF 393 renal): > 100 µM | TGI (HCT-15 colon): > 100 µM | TGI (A549 NSCLC): > 100 µM | TGI (HCC-2998 colon): > 100 µM | TGI (LOX IMVI melanoma): > 46.4 µM | TGI (UACC-257 melanoma): > 100 µM | TGI (HOP-92 NSCLC): > 100 µM | TGI (HL-60(TB) leukemia): > 43.8 µM | TGI (OVCAR-3 ovarian): > 100 µM | TGI (MALME-3M melanoma): > 100 µM | TGI (NCI-H226 lung): > 100 µM | TGI (SK-OV-3 ovarian): > 100 µM | TGI (K-562 leukemia): > 100 µM | TGI (SK-MEL-2 melanoma): > 100 µM | TGI (A498 renal): > 100 µM | TGI (SF-539 CNS): > 100 µM | TGI (NCI-H23 lung): > 100 µM | TGI (NCI-H460 lung): > 61.7 µM | TGI (NCI/ADR-RES ovarian): > 100 µM | TGI (UO-31 renal): > 57.3 µM | TGI (HT29 colon): > 100 µM | TGI (ACHN renal): > 100 µM | TGI (SR leukemia): > 100 µM | TGI (MDA-MB-231 breast): > 100 µM | TGI (SF-268 CNS): > 100 µM | TGI (BT-549 breast): > 100 µM | TGI (OVCAR-4 ovarian): > 100 µM | TGI (MDA-N): > 100 µM | TGI (MCF7 breast): > 100 µM | TGI (SN12C renal): > 100 µM | TGI (SK-MEL-5 melanoma): > 100 µM | TGI (PC-3 prostate): > 100 µM | TGI (SK-MEL-28 melanoma): > 100 µM | TGI (KM12 colon): > 100 µM | TGI (NCI-H522 lung): > 100 µM | TGI (DU-145 prostate): > 100 µM | TGI (HOP-62 NSCLC): 65.7 µM | TGI (COLO 205 colon): 52.4 µM | TGI (HCT-116 colon): > 100 µM | TGI (EKVX NSCLC): > 100 µM | TGI (U251 CNS): 31.8 µM | TGI (UACC-62 melanoma): > 92.9 µM | TGI (MOLT-4 leukemia): > 100 µM | TGI (MDA-MB-435): > 100 µM | TGI (CCRF-CEM leukemia): > 100 µM | TGI (RPMI-8226 leukemia): > 100 µM | TGI (SF-295 CNS): 80.6 µM | TGI (T-47D breast): > 78.7 µM | TGI (IGROV1 ovarian): > 100 µM | TGI (OVCAR-8 ovarian): > 44.5 µM

CNc1cccnc1/C=N/NC(N)=S
TGI (SNB-19 CNS): > 10 µM | TGI (OVCAR-5 ovarian): 9.78 µM | TGI (SW-620 colon): > 10 µM | TGI (786-0 renal): > 10 µM | TGI (CAKI-1 renal): > 10 µM | TGI (SNB-75 CNS): > 7.14 µM | TGI (M14 melanoma): 3.94 µM | TGI (HS 578T breast): > 10 µM | TGI (TK-10 renal): > 10 µM | TGI (RXF 393 renal): > 10 µM | TGI (HCT-15 colon): > 7.32 µM | TGI (A549 NSCLC): 9.91 µM | TGI (HCC-2998 colon): > 10 µM | TGI (LOX IMVI melanoma): > 10 µM | TGI (UACC-257 melanoma): > 10 µM | TGI (HOP-92 NSCLC): > 10 µM | TGI (HL-60(TB) leukemia): > 6.25 µM | TGI (OVCAR-3 ovarian): > 8.6 µM | TGI (MALME-3M melanoma): > 10 µM | TGI (NCI-H226 lung): > 10 µM | TGI (SK-OV-3 ovarian): > 10 µM | TGI (K-562 leukemia): > 10 µM | TGI (SK-MEL-2 melanoma): > 10 µM | TGI (A498 renal): > 10 µM | TGI (SF-539 CNS): 1.54 µM | TGI (NCI-H23 lung): > 6.65 µM | TGI (NCI-H460 lung): > 10 µM | TGI (NCI/ADR-RES ovarian): 9.94 µM | TGI (UO-31 renal): 4.5 µM | TGI (HT29 colon): > 10 µM | TGI (ACHN renal): 1.76 µM | TGI (SR leukemia): > 10 µM | TGI (MDA-MB-231 breast): > 10 µM | TGI (SF-268 CNS): > 10 µM | TGI (BT-549 breast): > 10 µM | TGI (OVCAR-4 ovarian): > 10 µM | TGI (MDA-N): > 10 µM | TGI (MCF7 breast): > 10 µM | TGI (SN12C renal): > 8.25 µM | TGI (SK-MEL-5 melanoma): > 10 µM | TGI (PC-3 prostate): > 10 µM | TGI (SK-MEL-28 melanoma): > 10 µM | TGI (KM12 colon): > 10 µM | TGI (NCI-H522 lung): > 10 µM | TGI (DU-145 prostate): 3.89 µM | TGI (HOP-62 NSCLC): > 8.19 µM | TGI (COLO 205 colon): > 10 µM | TGI (HCT-116 colon): > 8.26 µM | TGI (EKVX NSCLC): > 10 µM | TGI (U251 CNS): > 10 µM | TGI (UACC-62 melanoma): 3.07 µM | TGI (MOLT-4 leukemia): > 10 µM | TGI (MDA-MB-435): > 10 µM | TGI (CCRF-CEM leukemia): > 10 µM | TGI (RPMI-8226 leukemia): > 10 µM | TGI (SF-295 CNS): 5.71 µM | TGI (T-47D breast): > 10 µM | TGI (IGROV1 ovarian): > 10 µM | TGI (OVCAR-8 ovarian): > 10 µM

NC(CCCNc1cccc(O)c1)C(=O)O (stereo not given)
TGI (SNB-19 CNS): > 100 µM | TGI (OVCAR-5 ovarian): > 100 µM | TGI (SW-620 colon): > 100 µM | TGI (786-0 renal): > 100 µM | TGI (CAKI-1 renal): > 100 µM | TGI (SNB-75 CNS): > 100 µM | TGI (SNB-78 CNS): > 100 µM | TGI (M14 melanoma): > 100 µM | TGI (LXFL 529 NSCLC): > 100 µM | TGI (TK-10 renal): > 100 µM | TGI (RXF 393 renal): > 100 µM | TGI (HCT-15 colon): > 100 µM | TGI (HOP-18 NSCLC): > 100 µM | TGI (A549 NSCLC): > 100 µM | TGI (DMS 273 small cell lung): > 100 µM | TGI (LOX IMVI melanoma): > 100 µM | TGI (UACC-257 melanoma): > 100 µM | TGI (HOP-92 NSCLC): > 100 µM | TGI (HL-60(TB) leukemia): > 100 µM | TGI (OVCAR-3 ovarian): > 100 µM | TGI (MALME-3M melanoma): > 100 µM | TGI (NCI-H226 lung): > 100 µM | TGI (SK-OV-3 ovarian): > 100 µM | TGI (DMS 114 small cell lung): > 100 µM | TGI (K-562 leukemia): > 100 µM | TGI (SK-MEL-2 melanoma): > 100 µM | TGI (M19-MEL melanoma): > 100 µM | TGI (A498 renal): > 100 µM | TGI (NCI-H460 lung): > 100 µM | TGI (UO-31 renal): > 100 µM | TGI (KM20L2 colon): > 100 µM | TGI (HT29 colon): > 100 µM | TGI (ACHN renal): > 100 µM | TGI (SR leukemia): > 100 µM | TGI (SF-268 CNS): > 100 µM | TGI (OVCAR-4 ovarian): > 100 µM | TGI (SN12C renal): > 100 µM | TGI (SK-MEL-5 melanoma): > 100 µM | TGI (SK-MEL-28 melanoma): > 100 µM | TGI (NCI-H522 lung): > 100 µM | TGI (HOP-62 NSCLC): > 100 µM | TGI (COLO 205 colon): > 100 µM | TGI (HCT-116 colon): > 100 µM | TGI (EKVX NSCLC): > 100 µM | TGI (U251 CNS): > 100 µM | TGI (UACC-62 melanoma): > 100 µM | TGI (MOLT-4 leukemia): > 100 µM | TGI (DLD-1 colon): > 100 µM | TGI (CCRF-CEM leukemia): > 100 µM | TGI (RPMI-8226 leukemia): > 100 µM | TGI (SF-295 CNS): > 100 µM | TGI (OVCAR-8 ovarian): > 100 µM
